According to publication PMC8956739, “A synthetic lipopeptide targeting top-priority multidrug-resistant Gram-negative pathogens” (Nature Communications, 2022):
Values joined by “and” are separate entries in the source; they are usually repeats but may differ in a detail not shown here. Equal values may be shown once.

Columns and labels:
A. baumannii AB5075 = assay: In vitro passaging, emergence of resistance; format: cell-based, Acinetobacter baumannii
Experimental: Log-phase cultures (OD600 = 0.5, ~10^8 CFU/mL) of A. baumannii AB5075 were inoculated (1:10, v/v) in 200 μL fresh CaMHB (cation-adjusted Mueller–Hinton broth) containing 2, 8 and 16 μg/mL polymyxin B, colistin, F287, and F365 in a 96-well microplate with 4 biological replicates. The cultures were incubated at 37 °C for 12 h before the next dilution (1:10, v/v) with fresh CaMHB. Successive subculturing was conducted for 7 days.

wild-type HK-2 cells = assay: in vitro; format: cell-based, human; settings: human, wild-type HK-2 cells (kidney proximal tubular), 24 h
Experimental: Fig. 6 Transcriptomic changes in human kidney proximal tubular HK-2 cells following treatments with polymyxin B (PMB), colistin (COL), F287, F319, and F365. a Numbers of differentially expressed genes. Distinctive intersections are color-coded. b Cell viability difference (two-tailed Student’s t-test, n = 4 biologically independent cells, Benjamini–Hochberg adjusted P-values) between wild-type HK-2 and KCNJ16 knockout (KO) cells following 24 h treatment with lipopeptides. n.s., not significant; ^*adjusted P < 0.05, ^**adjusted P < 0.01, ^***adjusted P < 0.001. Data are shown as mean ± s.d. and individual data points. c Extracted transcriptional regulatory network from Signor database with 1-step neighbor constraints (enlarged for detail). Source data are provided as a Source Data file.

[1] = test system: MDR clinical isolates of Enterobacterales (n = 177, 152 carbapenem-resistant); assay: Extended MIC screening, MDR clinical isolates; format: cell-based
Experimental: MICs were determined in cation-adjusted Mueller–Hinton broth (CaMHB) by the broth micro-dilution method against ATCC strains and clinical isolates. MICs in the presence of Survanta® were determined as described above against P. aeruginosa ATCC 27853. In the 100 μL of fresh CaMHB containing polymyxins, 10% Survanta® (v/v, 2.5 mg/mL phospholipids) was added. MICs in the presence and absence of Survanta® were compared to determine the effect of binding to lung surfactant on the antibacterial activity of polymyxins.

Polymyxin B [reference compound]
regrowth observed from day (A. baumannii AB5075): 3 days | OD600 (A. baumannii AB5075; 8 ug/mL, time 0 h, passage 0, replicates rep1-rep4, raw OD600 (blank OD600 0.125333)): 0.153 and 0.134 and 0.139 and 0.14 | OD600 (A. baumannii AB5075; 8 ug/mL, time 12 h, passage 1, replicates rep1-rep4, raw OD600 (blank OD600 0.114667)): 0.127 and 0.115 and 0.123 and 0.124 | OD600 (A. baumannii AB5075; 8 ug/mL, time 24 h, passage 2, replicates rep1-rep4, raw OD600 (blank OD600 0.0956667)): 0.086 and 0.093 and 0.096 and 0.083 | OD600 (A. baumannii AB5075; 8 ug/mL, time 36 h, passage 3, replicates rep1-rep4, raw OD600 (blank OD600 0.088)): 0.088 and 0.089 and 0.094 and 0.092 | OD600 (A. baumannii AB5075; 8 ug/mL, time 48 h, passage 4, replicates rep1-rep4, raw OD600 (blank OD600 0.104667)): 0.096 and 0.099 and 0.098 and 0.101 | OD600 (A. baumannii AB5075; 8 ug/mL, time 60 h, passage 5, replicates rep1-rep4, raw OD600 (blank OD600 0.122333)): 0.108 and 0.105 and 0.103 and 0.116 | OD600 (A. baumannii AB5075; 8 ug/mL, time 72 h, passage 6, replicates rep1-rep4, raw OD600 (blank OD600 0.095)): 0.092 and 0.093 and 0.083 and 0.091 | OD600 (A. baumannii AB5075; 8 ug/mL, time 84 h, passage 7, replicates rep1-rep4, raw OD600 (blank OD600 0.091)): 0.1 and 0.081 and 0.084 and 0.089 | OD600 (A. baumannii AB5075; 8 ug/mL, time 96 h, passage 8, replicates rep1-rep4, raw OD600 (blank OD600 0.0953333)): 0.192 and 0.105 and 0.119 and 0.106 | OD600 (A. baumannii AB5075; 8 ug/mL, time 108 h, passage 9, replicates rep1-rep4, raw OD600 (blank OD600 0.100667)): 0.179 and 0.108 and 0.11 and 0.118 | OD600 (A. baumannii AB5075; 8 ug/mL, time 120 h, passage 10, replicates rep1-rep4, raw OD600 (blank OD600 0.0983333)): 0.215 and 0.139 and 0.136 and 0.132 | OD600 (A. baumannii AB5075; 8 ug/mL, time 132 h, passage 11, replicates rep1-rep4, raw OD600 (blank OD600 0.0843333)): 0.198 and 0.19 and 0.197 and 0.21 | OD600 (A. baumannii AB5075; 8 ug/mL, time 144 h, passage 12, replicates rep1-rep4, raw OD600 (blank OD600 0.091)): 0.2 and 0.22 and 0.217 and 0.231 | OD600 (A. baumannii AB5075; 8 ug/mL, time 156 h, passage 13, replicates rep1-rep4, raw OD600 (blank OD600 0.129)): 0.176 and 0.181 and 0.195 and 0.201 | time to emergence of resistance (A. baumannii AB5075; 4× MIC, 7-day passaging): ≤ 3 days | growth over 7 days (A. baumannii AB5075; 32× MIC): No growth | OD600 (A. baumannii AB5075; in vitro passaging, concentration 8 ug/mL, time 168 h, passage 14, individual replicates rep1-rep4, not blank-subtracted (blank OD600 0.101)): 0.177 and 0.182 and 0.195 and 0.205 | Cell viability, WT, Rep1 (wild-type HK-2 cells): 28.7713 | Cell viability, WT, Rep2 (wild-type HK-2 cells): 35.2856 | Cell viability, WT, Rep4 (wild-type HK-2 cells): 31.0651 | Number of isolates ([1]; isolates with MIC 0.05 µg/mL): 0 | Number of isolates ([1]; isolates with MIC 0.125 µg/mL): 0 | Number of isolates ([1]; isolates with MIC 0.25 µg/mL): 0 | Number of isolates ([1]; isolates with MIC 0.5 µg/mL): 0 | Number of isolates ([1]; isolates with MIC 1 µg/mL): 77 | Number of isolates ([1]; isolates with MIC 2 µg/mL): 76 | Number of isolates ([1]; isolates with MIC 4 µg/mL): 2 | Number of isolates ([1]; isolates with MIC 8 µg/mL): 2 | Number of isolates ([1]; isolates with MIC 16 µg/mL): 6 | Number of isolates ([1]; isolates with MIC 32 µg/mL): 3 | Number of isolates ([1]; isolates with MIC 64 µg/mL): 6 | Number of isolates ([1]; isolates with MIC >64 µg/mL): 5
